{"source": "paper PMC9599717", "about": "“The Multicellular Effects of VDAC1 N-Terminal-Derived Peptide” (Biomolecules, 2022)", "key": {"U-87MG cells [1]": {"tested_on": "U-87MG cells", "assay": "Cell senescence assay (β-galactosidase activity)", "format": "cell-based, human", "conditions": "12 h / 6 h (supplementary method)", "method": "Figure 3 The D-Δ(1-18)N-Ter-Antp peptide induced autophagy and cellular senescence and altered the expression of apoptosis-related proteins. (A,B) U-87MG cells were treated with the indicated concentrations of D-Δ(1-18)N-Ter-Antp peptide for 12 h and then were subjected to immunoblotting for caspase-9, AIF, Bcl-xL, Bcl-2, and Bax and the relative expression level was quantified (B). (C,D) U-87MG cells were treated with the indicated concentrations of D-Δ(1-18)N-Ter-Antp peptide for 12 h and then subjected to immunoblotting for the autophagy markers LC3-I and LC3-II (C) and LC3-II quantification (D). (E,F) U-87MG cells were treated with the indicated concentrations of D-Δ(1-18)N-Ter-Antp peptide for 12 h and then subjected to β-gal activity (blue). Mouse embryonic fibroblast cells at passage 10 (MEF-P10) served as a positive control of senescent cells. Quantification of β-gal staining intensity (F). Data are presented as the mean ± SD, n = 3, * p < 0.05; ** p < 0.01; *** p < 0.001 versus control group. NS, non-specific. […]\ncolor was read in a spectrophotometer at 680 nm. […]\n(§1) U-87MG cells were treated with D-Δ(1-18)N-Ter-Antp peptide in serum-free DMEM media for 6 h at 37℃, incubated with acridine orange (1 μg/ml) for 15 min, visualized by fluorescence microscopy (Olympus LX2 - KSP, Tokyo, Japan), and images were captured with a CCD camera. About 200 cells were counted for each […]"}, "U-87MG cells [2]": {"tested_on": "U-87MG cells", "assay": "Cell migration / wound-healing assay", "format": "cell-based, human", "conditions": "20 μM peptide, 24 h, untreated cells 64%", "method": "color was read in a spectrophotometer at 680 nm. A standard curve was obtained using D-glucose (0–20 µg) subjected to anthrone in a sulfuric acid treatment, as described above.\nLysosomal vacuolation observed with acridine orange (AO) staining\nas §1\nCell migration assay/wound-healing assay\nU-87MG cells were seeded in 12-well plates and cultured. When reaching around 90% confluence, a straight scratch was mechanically made with a sterile 10-µl pipette tip. The cells were treated with various concentrations of D-Δ(1-18)N-Ter-Antp peptide in serum-free DMEM media for the indicated time points. The images of the wounds were captured at different time points using a digital camera mounted on a microscope to follow the position of the migrating front at defined times. […]\nSummary of the peptide concentrations (µM) required for half-maximal cell death activity (IC50) in various cancer cell lines. […] Cell death was determined by PI staining and FACS analysis. […]"}}}
{"substance": "19-FTKGYGFGL-26- RQIKIWFQNRRMKWKK [D-Δ(1-18)N-Ter-Antp]", "values": [{"measurement": "Cellular senescence, β-galactosidase activity", "setting": "U-87MG cells [1]", "value": "showed cellular senescence"}, {"measurement": "Gap closed in wound-healing assay", "setting": "U-87MG cells [2]", "value": 17, "unit": "%"}]}
